# Results from patent US9309242B2, “Substituted pyrido[2,3-b]pyrazines as FGFR kinase inhibitors” (priority 2011, dated 2016).
# How the values were obtained:
# [1] = molecular target: Ba/F3-FGFR4-transfected cells (Homo sapiens, UniProt P22455); test: Ba/F3-FGFR4 cellular proliferation assay, Alamar Blue; format: cell-based
# Outline: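 Proliferation is measured by resazurin reduction: after 24 h compound treatment at 37 °C in RPMI-1640/10% FBS, cells get Alamar Blue for 4 h before RFU read (540/590 nm). Each well holds 20000 Ba/F3-FGFR4-transfected cells.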
# KDR (h) = KDR (h) (Homo sapiens, UniProt P35968); test: KDR (VEGFR2) (enzymatic assay), TR-FRET; format: biochemical; details: read-out: VEGFR 2 (KDR) pIC50 (converted)
# KDR (h), sequence (P35968 20-1356): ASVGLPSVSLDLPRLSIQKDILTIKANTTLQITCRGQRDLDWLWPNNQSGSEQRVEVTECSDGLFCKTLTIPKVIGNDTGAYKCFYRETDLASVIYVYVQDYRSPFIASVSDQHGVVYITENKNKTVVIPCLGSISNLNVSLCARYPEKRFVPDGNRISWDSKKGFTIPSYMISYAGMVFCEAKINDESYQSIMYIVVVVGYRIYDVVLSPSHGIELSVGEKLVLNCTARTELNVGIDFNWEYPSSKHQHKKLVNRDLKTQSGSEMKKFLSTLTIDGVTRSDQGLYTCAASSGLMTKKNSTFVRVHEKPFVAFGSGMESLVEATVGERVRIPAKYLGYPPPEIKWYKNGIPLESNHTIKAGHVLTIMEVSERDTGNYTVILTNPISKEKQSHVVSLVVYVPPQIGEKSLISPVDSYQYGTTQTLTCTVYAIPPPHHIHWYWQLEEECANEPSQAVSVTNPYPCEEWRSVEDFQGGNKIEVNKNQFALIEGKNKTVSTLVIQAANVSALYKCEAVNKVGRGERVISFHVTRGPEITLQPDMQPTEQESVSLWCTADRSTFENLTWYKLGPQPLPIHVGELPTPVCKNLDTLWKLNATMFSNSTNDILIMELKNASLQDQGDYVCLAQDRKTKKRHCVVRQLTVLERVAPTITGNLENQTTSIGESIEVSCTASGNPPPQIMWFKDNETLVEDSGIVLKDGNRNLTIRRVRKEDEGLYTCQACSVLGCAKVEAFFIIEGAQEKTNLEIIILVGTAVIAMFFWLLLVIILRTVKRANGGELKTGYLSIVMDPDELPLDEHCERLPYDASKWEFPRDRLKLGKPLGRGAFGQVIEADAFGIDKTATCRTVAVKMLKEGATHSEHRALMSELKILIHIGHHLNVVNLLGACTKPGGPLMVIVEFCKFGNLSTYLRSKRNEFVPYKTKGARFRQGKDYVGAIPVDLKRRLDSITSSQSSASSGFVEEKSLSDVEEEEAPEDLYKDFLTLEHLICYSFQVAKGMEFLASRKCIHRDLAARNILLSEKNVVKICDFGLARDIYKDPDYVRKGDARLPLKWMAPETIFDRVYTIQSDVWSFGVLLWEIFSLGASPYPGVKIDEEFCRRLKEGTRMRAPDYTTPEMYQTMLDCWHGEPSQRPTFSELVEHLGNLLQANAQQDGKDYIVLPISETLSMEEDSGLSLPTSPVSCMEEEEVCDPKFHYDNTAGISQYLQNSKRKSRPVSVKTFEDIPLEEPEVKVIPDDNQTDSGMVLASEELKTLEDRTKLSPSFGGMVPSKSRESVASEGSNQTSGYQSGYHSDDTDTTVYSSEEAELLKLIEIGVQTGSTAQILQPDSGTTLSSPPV
# Outline: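 TR-FRET readout (ex 340, em 620/655 nm) in RFU after EDTA stop with Eu-anti-phosphotyrosine and SA-XL665 for 60 min. The preceding 120-min room-temperature kinase step used 150 ng/ml KDR (h), 3 μM ATP, 500 nM biotinylated Flt3 peptide, MnCl2-containing HEPES buffer pH 7.5, 1% DMSO.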
# Ba/F3-FGFR4-transfected cells, sequence (P22455 whole entry, change not shown): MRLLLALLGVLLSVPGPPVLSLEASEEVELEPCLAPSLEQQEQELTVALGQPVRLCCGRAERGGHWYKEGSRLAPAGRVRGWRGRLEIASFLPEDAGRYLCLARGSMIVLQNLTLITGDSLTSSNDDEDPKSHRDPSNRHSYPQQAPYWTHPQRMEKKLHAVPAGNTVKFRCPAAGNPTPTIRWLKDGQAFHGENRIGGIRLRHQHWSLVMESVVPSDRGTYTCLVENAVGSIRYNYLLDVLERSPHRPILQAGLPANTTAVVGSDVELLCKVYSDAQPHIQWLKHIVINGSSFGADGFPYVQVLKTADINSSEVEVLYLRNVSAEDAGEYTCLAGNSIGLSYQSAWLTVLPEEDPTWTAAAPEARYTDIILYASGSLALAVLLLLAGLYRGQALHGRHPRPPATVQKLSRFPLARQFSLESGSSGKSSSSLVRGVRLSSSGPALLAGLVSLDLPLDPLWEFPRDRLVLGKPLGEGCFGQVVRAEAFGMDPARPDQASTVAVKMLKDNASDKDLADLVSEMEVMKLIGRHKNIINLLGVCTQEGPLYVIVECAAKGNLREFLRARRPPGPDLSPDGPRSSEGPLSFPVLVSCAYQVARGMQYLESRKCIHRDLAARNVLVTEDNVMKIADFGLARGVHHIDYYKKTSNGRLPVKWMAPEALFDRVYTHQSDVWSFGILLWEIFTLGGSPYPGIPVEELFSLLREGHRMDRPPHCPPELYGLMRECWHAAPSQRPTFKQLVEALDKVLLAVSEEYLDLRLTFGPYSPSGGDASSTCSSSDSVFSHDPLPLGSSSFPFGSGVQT
SMILES,BAF3-FGFR4 pIC50 [1],IC50 (KDR (h)),melting point
COc1cc(OC)cc(N(Cc2nnc(NCCO)o2)c2ccc3ncc(-c4cnn(C)c4)nc3n2)c1 [Compound 282],<5,661 nM,104 °C
COc1cc(OC)c(F)c(N(Cc2ncc[nH]2)c2ccc3ncc(N4CCOCC4)nc3n2)c1 [Compound 291],7.08,89.1 nM,
"COc1cc(OC)c(F)c(N(C)c2ccc3ncc(-c4cnn(C)c4)nc3n2)c1F (single isomer, unassigned) [Compound 254]",7.15,14.1 nM,210 °C
COc1cc(OC)cc(N(c2ccc3ncc(-c4cnn(C)c4)nc3n2)C(C)c2ncc[nH]2)c1 (stereo not shown) [Compound 280],7.97,31.6 nM,
"COc1cc(OC)c(F)c(N(CC(O)COC(C)C)c2ccc3ncc(-c4cnn(CC(O)COC(C)C)c4)nc3n2)c1 (single isomer, unassigned) [Compound 252]",6.95,49 nM,60 °C
"COc1cc(OC)c(F)c(N(CC2CC2)c2ccc3ncc(-c4cnn(C)c4)nc3n2)c1F (single isomer, unassigned) [Compound 268]",6.90,12 nM,
COc1cc(OC)c(F)c(N(CCS(C)(=O)=O)c2ccc3ncc(-c4cnn(CCS(C)(=O)=O)c4)nc3n2)c1 [Compound 266],5.78,34.7 nM,180 °C
COc1cc(OC)cc(N(CC(C)(C)O)c2ccc3ncc(-c4cnn(C)c4)nc3n2)c1 [Compound 276],5.82,141 nM,
COc1cc(OC)cc(N(Cc2ncc[nH]2)c2ccc3ncc(N4CCOCC4)nc3n2)c1 [Compound 293],6.82,234 nM,
COc1cc(OC)c(F)c(N(Cc2ncc[nH]2)c2ccc3ncc(-c4cnn(CCCN)c4)nc3n2)c1 [Compound 295],7.61,9.33 nM,
COc1cc(OC)c(F)c(N(CC(C)(C)O)c2ccc3ncc(-c4cnn(C)c4)nc3n2)c1 [Compound 245],6.34,60.3 nM,
COc1cc(OC)c(C)c(N(Cc2ncc[nH]2)c2ccc3ncc(-c4cnn(C)c4)nc3n2)c1 [Compound 273],7.60,20.4 nM,
COc1cc(OC)c(F)c(N(CC(=O)N2CCNCC2)c2ccc3ncc(-c4cnn(C)c4)nc3n2)c1 [Compound 262],5.63,240 nM,
COc1cc(OC)cc(N(CCNC2COC2)c2ccc3ncc(-c4cnn(C)c4)nc3n2)c1 [Compound 290],6.32,55 nM,
COc1cc(/N=c2\ccc3ncc(-c4cnn(C)c4)nc3n2CC(C)(C)O)cc(OC)c1 [Compound 277],6.37,15.1 nM,
COc1cc(OC)cc(N(Cc2c[nH]nn2)c2ccc3ncc(-c4cnn(C)c4)nc3n2)c1 [Compound 251],6.57,26.3 nM,
"COc1cc(OC)c(F)c(/N=c2\ccc3ncc(-c4cnn(C)c4)nc3n2CC2CC2)c1F (single isomer, unassigned) [Compound 267]",7.55,12.6 nM,195 °C
COc1cc(/N=c2\ccc3ncc(-c4cnn(C)c4)nc3n2CC(C)(C)O)c(F)c(OC)c1 [Compound 246],6.71,7.59 nM,
COc1cc(/N=c2\ccc3ncc(-c4cnn(C)c4)nc3n2CC2CC(O)C(=O)N2)c(F)c(OC)c1 (stereo not shown) [Compound 270],6.40,6.46 nM,
COc1cc(OC)c(F)c(N(Cc2noc(C)n2)c2ccc3ncc(-c4cnn(C)c4)nc3n2)c1 [Compound 297],6.99,16.2 nM,
"COc1cc(OC)c(F)c(/N=c2\ccc3ncc(-c4cnn(C)c4)nc3n2C)c1F (single isomer, unassigned) [Compound 255]",7.34,3.09 nM,199 °C

SMILES,BAF3-FGFR4 pIC50 [1],IC50 (KDR (h)),melting point
COc1cc(OC)c(F)c(N(Cc2ncc[nH]2)c2ccc3ncc(-c4cnn(CCS(C)(=O)=O)c4)nc3n2)c1 [Compound 264],7.18,9.33 nM,
COc1cc(/N=c2\ccc3ncc(-c4cnn(C)c4)nc3n2CC2CCC(=O)N2CCO)c(F)c(OC)c1 (stereo not shown) [Compound 247],6.87,12 nM,
COc1cc(OC)c(F)c(N(CC2CCC(=O)N2)c2ccc3ncc(-c4cnn(CC(C)(C)O)c4)nc3n2)c1 (stereo not shown) [Compound 285],6.12,35.5 nM,
COc1cc(OC)c(F)c(N(c2ccc3ncc(-c4cnn(C)c4)nc3n2)C(C)c2ncc[nH]2)c1 (stereo not shown) [Compound 287],8.08,17.4 nM,
COc1cc(OC)cc(N(CCS(C)(=O)=O)c2ccc3ncc(-c4cnn(CCS(C)(=O)=O)c4)nc3n2)c1 [Compound 275],5.13,141 nM,172 °C
CNCCn1ccnc1CN(c1ccc2ncc(-c3cnn(C)c3)nc2n1)c1cc(OC)cc(OC)c1F [Compound 289],6.07,97.7 nM,92 °C
CCn1/c(=N/c2c(F)c(OC)cc(OC)c2F)ccc2ncc(-c3cnn(C)c3)nc21 [Compound 257],7.98,3.16 nM,
COc1cc(OC)c(F)c(N(Cc2ncc[nH]2)c2ccc3ncc(N4C[C@@H](C)N[C@@H](C)C4)nc3n2)c1 [Compound 259],6.19,309 nM,
COc1cc(OC)c(F)c(N(Cc2ncc[nH]2)c2ccc3ncc(-c4cnn(C5COC5)c4)nc3n2)c1 [Compound 253],7.90,12 nM,
COc1cc(OC)c(F)c(N(Cc2c[nH]nn2)c2ccc3ncc(-c4cnn(C)c4)nc3n2)c1 [Compound 258],7.03,12.3 nM,
COc1cc(OC)c(F)c(N(CC2CCC(=O)N2)c2ccc3ncc(-c4cnn(C5CNC5)c4)nc3n2)c1 (stereo not shown) [Compound 299],5.32,120 nM,
COc1cc(/N=c2\ccc3ncc(-c4cnn(C)c4)nc3n2CC2CC(O)C(=O)N2)cc(OC)c1 (stereo not shown) [Compound 272],5.97,10 nM,
COc1cc(OC)cc(N(CC2CC(O)C(=O)N2)c2ccc3ncc(-c4cnn(C)c4)nc3n2)c1 (stereo not shown) [Compound 271],5.80,174 nM,
CNC(=O)c1cc(F)cc(N(Cc2ncc[nH]2)c2ccc3ncc(-c4cnn(C)c4)nc3n2)c1 [Compound 261],6.77,10.2 nM,180 °C
COc1cc(OC)cc(N(CC(O)COC(C)C)c2ccc3ncc(-c4cnn(CC(O)COC(C)C)c4)nc3n2)c1 (stereo not shown) [Compound 250],6.37,120 nM,
COc1cc(OC)c(F)c(N(CC(O)c2cnn(C)c2)c2ccc3ncc(-c4cnn(C)c4)nc3n2)c1 (stereo not shown) [Compound 244],6.11,129 nM,
COc1cc(OC)c(F)c(N(CC(=O)NC(C)C)c2ccc3ncc(-c4cnn(C)c4)nc3n2)c1 [Compound 249],6.00,224 nM,
COc1cc(OC)c(F)c(N(CC2CC(O)C(=O)N2)c2ccc3ncc(-c4cnn(C)c4)nc3n2)c1 (stereo not shown) [Compound 269],6.29,74.1 nM,
"COCC(O)Cn1/c(=N/c2cc(OC)cc(OC)c2F)ccc2ncc(-c3cnn(C)c3)nc21 (single isomer, unassigned) [Compound 60]",7.76,8.91 nM,114 °C
COc1cc(OC)c(F)c(N(CC(C)(C)O)c2ccc3ncc(-c4cnn(C)c4)nc3n2)c1F [Compound 278],7.11,15.8 nM,
COc1cc(/N=c2\ccc3ncc(-c4cnn(CC(C)(C)O)c4)nc3n2CC2CCC(=O)N2)c(F)c(OC)c1 (stereo not shown) [Compound 286],6.69,11 nM,
